What was measured:
Haemophilus influenzae = assay: Pilot test of bactericidal effect, bacteria in media; type: cell-based; details: bacteria suspended in media incubated for one hour with ACY-1083, pilot experiment
cyclooxygenase 2 (COX2) = target: T1, cyclooxygenase 2 (COX2) (Homo sapiens, UniProt P35354); assay: Secondary pharmacology panel (Eurofins); type: biochemical
T1 construct: purchased Eurofins Pharma Discovery Services
T1 sequence (P35354 18-604): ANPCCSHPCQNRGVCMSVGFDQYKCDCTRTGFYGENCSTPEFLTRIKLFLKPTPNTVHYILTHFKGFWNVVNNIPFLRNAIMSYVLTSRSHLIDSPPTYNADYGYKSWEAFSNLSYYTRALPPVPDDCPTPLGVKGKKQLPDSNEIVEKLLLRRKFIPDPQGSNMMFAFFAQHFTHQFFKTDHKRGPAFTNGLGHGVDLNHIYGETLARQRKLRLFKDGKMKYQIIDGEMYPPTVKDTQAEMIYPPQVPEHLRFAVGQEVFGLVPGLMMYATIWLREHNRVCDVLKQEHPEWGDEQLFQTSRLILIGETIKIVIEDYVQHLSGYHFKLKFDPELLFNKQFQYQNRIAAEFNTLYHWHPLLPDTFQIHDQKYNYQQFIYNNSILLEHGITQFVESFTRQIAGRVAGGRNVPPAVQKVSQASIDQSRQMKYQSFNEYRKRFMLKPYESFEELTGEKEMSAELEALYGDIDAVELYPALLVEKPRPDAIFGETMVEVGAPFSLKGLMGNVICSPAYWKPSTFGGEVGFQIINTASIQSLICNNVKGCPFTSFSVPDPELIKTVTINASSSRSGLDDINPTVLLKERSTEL
Description: Second pharmacology screening was performed at Eurofins Pharma Discovery Services in a panel of 190 in vitro radioligand binding and enzyme assays covering a diverse set of enzymes, receptors, ion channels, and transporters.

COPD HBEC ALI cultures [1] = assay: Cytokine release in basolateral supernatants (MSD), TNF challenge; type: cell-based, human; details: 10 μM, TNF 5, 20 and 50 ng/ml, day seven
Description: TEER and permeability were measured after seven days.
To assess cytokines released, basolateral supernatants were collected on day seven and immediately frozen at -80°C until MSD analysis of IL-6, CCL2 and CXCL10. In short, U-PLEX MSD plates (Mesoscale Discovery, Rockville, Maryland, USA) were coated, washed and stored overnight. Standard curves were prepared and added in duplicates on each plate. Supernatants were thawed on ice and added to the plates, which were incubated on an orbital shaker for one hour before sulfo-tagged antibodies were added and incubated for another hour. Plates were washed, read buffer added and read on MESO SECTOR S 600 (Mesoscale Discovery, Rockville, Maryland, USA). Data was plotted as fold change to DMSO control.

HDAC9 = target: T2, HDAC9 (Homo sapiens, UniProt Q9UKV0); assay: HDAC enzymatic activity (Eurofins); type: biochemical; details: Class IIA; ACY-1083 mean of two separate measurements, Ricolinostat and Tubastatin A one measurement
T2 construct: purchased Eurofins Pharma Discovery Services 2611

COPD HBEC ALI cultures [2] = assay: Whole cigarette smoke (WCS) challenge in ALI, FITC-dextran permeability; type: cell-based, human; details: 10 μM started after first smoke exposure, 4 exposures in 2 days, all concentrations except the highest (1, 0.5 and 0.2 l/min dilution), one COPD donor, exploratory
Description: (§1) The paracellular permeability was determined by using fluorescein isothiocyanate labeled 4kD-dextran (Sigma-Aldrich, St. Louis, USA). 18 hours after addition of 0.2 mg FITC-dextran in 200 μL medium to the apical side of the ALI cultures, the fluorescence in the basolateral medium was measured using PHERAstar FSX (excitation 485 nm and emission 520 nm) (BMG LABTECH, Ortenberg, Germany). The time point was chosen for optimal window in the assays as well as practical reasons and has been kept consistent in between different stimulations throughout this work. Data was plotted as fold-change of 0.1% DMSO control.
Whole cigarette smoke (WCS) experiments were performed using the Smoking Robot VC 10® S-TYPE (Vitrocell, Waldkirch, Germany). The Vitrocell smoke robot delivers either WCS or humidified air to the apical surface of the cell layers. Briefly, inserts with fully differentiated HBEC in ALI from one COPD donor were placed in the Vitrocell smoke chamber filled with DMEM medium (Thermo Fisher Scientific) and CS or humidified air was puffed onto the apical surface. ISO Puff Standard was used with each CS exposure consisting of two 3R4F Kentucky research cigarettes (one 35 ml puff every 60 seconds). Cells were exposed to WCS four times during two days with a minimum of two hours elapsed between smoke exposures. […] Permeability was measured 20 hours after the last smoke session.

HDAC7 = target: T3, HDAC7 (Homo sapiens, UniProt Q8WUI4); assay: HDAC enzymatic activity (Eurofins); type: biochemical; details: Class IIA; ACY-1083 mean of two separate measurements, Ricolinostat and Tubastatin A one measurement
T3 construct: purchased Eurofins Pharma Discovery Services 2610
T3 sequence (Q8WUI4 1-952): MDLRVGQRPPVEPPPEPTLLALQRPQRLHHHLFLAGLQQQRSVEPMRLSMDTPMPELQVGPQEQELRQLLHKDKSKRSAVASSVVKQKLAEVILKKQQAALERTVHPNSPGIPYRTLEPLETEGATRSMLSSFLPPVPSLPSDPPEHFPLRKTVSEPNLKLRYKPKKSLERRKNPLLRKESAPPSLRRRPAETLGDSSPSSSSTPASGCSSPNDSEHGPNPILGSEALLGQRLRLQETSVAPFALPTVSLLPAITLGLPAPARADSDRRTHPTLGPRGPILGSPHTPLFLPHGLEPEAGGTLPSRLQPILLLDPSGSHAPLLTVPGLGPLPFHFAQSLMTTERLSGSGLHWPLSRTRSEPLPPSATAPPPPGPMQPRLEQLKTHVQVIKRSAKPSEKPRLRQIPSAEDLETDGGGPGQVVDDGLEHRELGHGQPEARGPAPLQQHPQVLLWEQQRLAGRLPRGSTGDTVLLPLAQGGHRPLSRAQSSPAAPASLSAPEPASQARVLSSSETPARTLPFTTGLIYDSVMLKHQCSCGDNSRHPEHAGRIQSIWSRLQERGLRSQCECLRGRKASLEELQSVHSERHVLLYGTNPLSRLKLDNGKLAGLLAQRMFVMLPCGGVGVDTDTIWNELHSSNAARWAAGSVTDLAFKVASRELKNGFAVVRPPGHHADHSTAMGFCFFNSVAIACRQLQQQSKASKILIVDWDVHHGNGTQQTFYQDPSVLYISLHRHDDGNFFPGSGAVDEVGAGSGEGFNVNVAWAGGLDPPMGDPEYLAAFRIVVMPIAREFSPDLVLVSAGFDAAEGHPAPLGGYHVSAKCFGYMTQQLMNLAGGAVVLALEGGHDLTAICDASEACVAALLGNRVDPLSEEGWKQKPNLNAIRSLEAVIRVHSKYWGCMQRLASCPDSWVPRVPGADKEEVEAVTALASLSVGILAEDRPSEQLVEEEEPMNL

COPD HBEC ALI cultures [3] = assay: TGF-β1 challenge in ALI, FITC-dextran permeability; type: cell-based, human; details: 10 μM pre-treatment 3 days, TGF-β 0.4, 2 and 10 ng/ml for 48 hours, two COPD donors
Description: as §1
Permeability was measured after 48 hours.

IKs = target: T4, IKs (Homo sapiens, UniProt P51787); assay: Cardiovascular ion channel panel, SyncroPatch 384PE patch clamp; type: cell-based; details: CHO K1 cell line, room temperature, 6 point cumulative assay
T4 construct: expressed in transfected cells; host or cells: Chinese hamster ovary K1 cell line

T2 sequence (Q9UKV0 whole entry): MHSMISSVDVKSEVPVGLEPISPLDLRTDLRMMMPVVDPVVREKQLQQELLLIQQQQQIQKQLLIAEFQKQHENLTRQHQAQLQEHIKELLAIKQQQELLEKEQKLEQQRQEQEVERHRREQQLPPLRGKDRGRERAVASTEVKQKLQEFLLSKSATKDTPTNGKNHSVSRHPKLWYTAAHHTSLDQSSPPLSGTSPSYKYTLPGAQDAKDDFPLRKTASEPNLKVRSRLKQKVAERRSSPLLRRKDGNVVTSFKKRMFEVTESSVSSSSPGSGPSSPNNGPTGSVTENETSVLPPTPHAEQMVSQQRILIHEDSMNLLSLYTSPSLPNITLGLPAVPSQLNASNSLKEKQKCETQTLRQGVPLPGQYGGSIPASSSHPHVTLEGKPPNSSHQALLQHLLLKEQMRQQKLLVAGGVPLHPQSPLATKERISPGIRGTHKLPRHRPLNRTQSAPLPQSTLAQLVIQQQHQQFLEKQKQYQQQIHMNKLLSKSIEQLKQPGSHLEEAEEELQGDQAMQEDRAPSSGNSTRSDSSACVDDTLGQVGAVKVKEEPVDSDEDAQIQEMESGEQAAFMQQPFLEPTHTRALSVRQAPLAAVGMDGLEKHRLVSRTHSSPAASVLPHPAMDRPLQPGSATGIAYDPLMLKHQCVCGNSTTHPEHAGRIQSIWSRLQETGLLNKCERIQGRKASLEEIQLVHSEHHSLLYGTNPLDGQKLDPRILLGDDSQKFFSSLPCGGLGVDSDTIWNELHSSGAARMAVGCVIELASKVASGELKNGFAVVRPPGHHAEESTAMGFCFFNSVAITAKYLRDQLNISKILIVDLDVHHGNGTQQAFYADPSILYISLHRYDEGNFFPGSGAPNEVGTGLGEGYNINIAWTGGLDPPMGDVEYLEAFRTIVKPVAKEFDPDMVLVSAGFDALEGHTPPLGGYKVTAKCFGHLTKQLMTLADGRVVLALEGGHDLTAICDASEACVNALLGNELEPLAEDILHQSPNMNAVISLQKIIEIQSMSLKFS

## ACY-1083
Haemophilus influenzae
  bactericidal effect (bacterial counts): no effect on bacterial counts
Cyclooxygenase 2 (COX2)
  IC50: 6.48 µM
COPD HBEC ALI cultures [1]
  CCL2 protein induction in basolateral supernatant: reduced
  CXCL10 protein induction in basolateral supernatant: reduced
  IL-6 protein induction in basolateral supernatant: reduced
HDAC9
  IC50: 19.3 µM
COPD HBEC ALI cultures [2]
  paracellular permeability after WCS challenge: decrease permeability
HDAC7
  IC50: 6.51 µM
COPD HBEC ALI cultures [3]
  paracellular permeability after TGF-β challenge: decreased it at all concentrations
IKs
  activity on IKs: > 30 µM

Reference: paper PMC9555642 (PLoS ONE, 2022)
